Drawing on US9856247B2, “4-methyl-dihydropyrimidines for the treatment and prophylaxis of Hepatitis B virus infection” (Hoffmann-La Roche Inc., priority 2012, dated 2018), this text covers CC50 and EC50 for 18 compounds.

A value given as a limit tells only on which side of the number the result lay.

Broadly, the EC50 is the concentration giving half of the maximal effect.

One data set can be described thus: in vitro. As to conditions: human. As for the experimental part:
The transfected cells were selected with G418 (also known as Genticin, purchased from Invitrogen). […] These cells were maintained in Dulbecco's modified Eagle's medium (DMEM)-F12 medium (Invitrogen) supplemented with 10% fetal bovine serum, 100 U/ml penicillin, and 100 μg/ml streptomycin, 0.5 mg/ml of G418 and 1 μg/ml tetracycline.
To determine if the anti-HBV effect of compound is due to cytotoxicity, HepDE 19 cells (5×10^3 cells/well) were seeded into 96-well plates and compounds were treated as described above. […] Four hours after incubation at 37° C., the absorbance at wavelengths of 450 nm and 630 nm (OD450 and OD630) was recorded by a plate reader.

Another data set concerns HBV DNA. Nature of the data set: Anti-HBV activity in HepDE19 cells (HBV DNA dot-blot). The class given is cell-based, Hepatitis B virus (HBV). As to conditions: Hepatitis B virus, 120 h; HepDE19 cells, five days after compound treatment, concentration that inhibited HBV DNA by 50%; read-out: HepDe19 EC50. From the text: Cells and culture conditions: HepDE19 (Haitao Guo et al, Journal of Virology, 81, November 2007, 12472-12484; Richeng Mao et al, Journal of Virology, 85, January 2011, 1048-1057) cells were derived from HepG2 (ATCC, American Type Culture Collection) cells through transfection with pTet-off plasmid (Clontech) that expresses the Tet-responsive transcriptional activator and pTREHBVDE plasmid in which HBV pgRNA expression is controlled by a CMV early promoter with a tetracycline-responsive element. The transfected cells were selected with G418 (also known as Genticin, purchased from Invitrogen). […] These cells were maintained in Dulbecco's modified Eagle's medium (DMEM)-F12 medium (Invitrogen) supplemented with 10% fetal bovine serum, 100 U/ml penicillin, and 100 μg/ml streptomycin, 0.5 mg/ml of G418 and 1 μg/ml tetracycline.
Anti-HBV activity and cytotoxicity: HepDE19 cells were seeded into 96-well plates (3×10^4 cells/well) with tetracycline-free medium and incubated overnight at 37° C. The test or control compounds were serially half-log diluted with medium and added into the plates (the final concentration of DMSO kept at 0.5% in each well). Five days after compound treatment, cells were washed with PBS and lysed with 50 mM Tris-1 mM EDTA-0.2% CA-630 (pH 8.0) at 37° C. for 20 min. After centrifugation to remove nuclei and other debris, the supernatant was transferred into a new plate and incubated with 2M NaOH/20×SSC (3M NaCl, 0.3M Sodium citrate, pH7.0) at rt for 30 min. Then the samples were transferred to nylon membrane and neutralized with 1M Tris (pH7.4)/2M NaCl. The presence of HBV DNA was detected by dot-blot with DIG-labeled HBV specific DNA probe and quantified by dot density. The compound concentrations that inhibited HBV DNA by 50% (EC50) were determined (See Table 1).

Turning to `CCOC(=O)C1=C(CN2CC(F)(F)C[C@H]2C(=O)O)NC(c2nccs2)=N[C@@]1(C)c1ccc(F)c(F)c1` [Example 24, (S)-6-((S)-2-carboxy-4,4-difluoro-pyrrolidin-1-ylmethyl)-4-(3,4-difluoro-phenyl)-4-methyl-2-thiazol-2-yl-1,4-dihydro-pyrimidine-5-carboxylic acid ethyl ester], the CC50 at 5 days in “in vitro” was at least 100 µM. For the same compound, in the data set on HBV DNA, the EC50 turned out to be 0.8 µM.
Compound `COC(=O)C1=C(CN2CC(F)(F)CCC2C(=O)O)NC(c2nccs2)=N[C@@]1(C)c1ccc(F)cc1` (stereo partly drawn) [Example 25, (S)-6-(2-carboxy-5,5-difluoro-piperidin-1-ylmethyl)-4-(4-fluoro-phenyl)-4-methyl-2-thiazol-2-yl-1,4-dihydro-pyrimidine-5-carboxylic acid methyl ester] had a CC50 at 5 days in the data set “in vitro” of at least 100 µM. Also, the EC50 with HBV DNA is 1.09 µM.
The matching figures for `COC(=O)C1=C(CN2CCC(F)(F)CC2C(=O)O)NC(c2nccs2)=N[C@@]1(C)c1ccc(F)cc1` (stereo partly drawn) [Example 26, (S)-6-(2-carboxy-4,4-difluoro-piperidin-1-ylmethyl) 4-(4-fluoro-phenyl)-4-methyl-2-thiazol-2-yl-1,4-dihydro-pyrimidine-5-carboxylic acid methyl ester]: at least 100 µM and 1.97 µM.
As for `COC(=O)C1=C(CN2CC(F)(F)C[C@H]2C(=O)O)NC(c2nccn2C)=N[C@@]1(C)c1ccc(F)cc1` [Example 27, (S)-6-((S)-2-carboxy-4,4-difluoro-pyrrolidin-1-ylmethyl)-4-(4-fluoro-phenyl)-4-methyl-2-(1-methyl-1H-imidazol-2-yl)-1,4-dihydro-pyrimidine-5-carboxylic acid methyl ester], in “in vitro”, the CC50 at 5 days is 55.8 µM. The concentration for a half-maximal effect (EC50) with HBV DNA came to 2.72 µM.
In “in vitro”, `CCOC(=O)C1=C(CN2CC(F)(F)C[C@H]2C(=O)O)NC(c2nccs2)=N[C@]1(C)c1ccc(F)c(F)c1` [Example 28, (R)-6-((S)-2-carboxy-4,4-difluoro-pyrrolidin-1-ylmethyl)-4-(3,4-difluoro-phenyl)-4-methyl-2-thiazol-2-yl-1,4-dihydro-pyrimidine-5-carboxylic acid ethyl ester] had a CC50 at 5 days of at least 100 µM. Further, the EC50 in the data set with HBV DNA amounted to 7.48 µM.
For `CCOC(=O)C1=C(CN2CCOC[C@H]2C(=O)O)NC(c2nccs2)=NC1(C)c1ccc(F)c(F)c1` (stereo partly drawn) [Example 29, (S)-4-[6-(3,4-difluoro-phenyl)-5-ethoxycarbonyl-6-methyl-2-thiazol-2-yl-3,6-dihydro-pyrimidin-4-ylmethyl]-morpholine-3-carboxylic acid] the same measures were at least 100 µM and 3.98 µM.
On to `COC(=O)C1=C(CN2CCOC[C@H]2C(=O)O)NC(c2nccn2C)=N[C@@]1(C)c1ccc(F)cc1` [Example 30, (S)-4-[(S)-6-(4-fluoro-phenyl)-5-methoxycarbonyl-6-methyl-2-(1-methyl-1H-imidazol-2-yl)-3,6-dihydro-pyrimidin-4-ylmethyl]-morpholine-3-carboxylic acid], for which the CC50 at 5 days in the data set “in vitro” was at least 100 µM. The EC50 in the data set on HBV DNA turned out to be 6.77 µM.
In the data set “in vitro”, `COC(=O)C1=C(CN2CC(F)(F)C[C@H]2C(=O)O)NC(c2nc(C)cs2)=N[C@]1(C)c1ccc(F)cc1` [Example 31, (R)-6-((S)-2-carboxy-4,4-difluoro-pyrrolidin-1-ylmethyl)-4-(4-fluoro-phenyl)-4-methyl-2-(4-methyl-thiazol-2-yl)-1,4-dihydro-pyrimidine-5-carboxylic acid methyl ester] yielded a CC50 at 5 days of at least 100 µM. Further, the EC50 in the data set with HBV DNA was found to be 1.67 µM.
In the data set “in vitro”, `COC(=O)C1=C(CN2CC(F)(F)C[C@H]2C(=O)O)NC(c2nc(C)cs2)=N[C@@]1(C)c1ccc(F)cc1` [Example 32, (S)-6-((S)-2-carboxy-4,4-difluoro-pyrrolidin-1-ylmethyl)-4-(4-fluoro-phenyl)-4-methyl-2-(4-methyl-thiazol-2-yl)-1,4-dihydro-pyrimidine-5-carboxylic acid methyl ester] returned a CC50 at 5 days of 75 µM. Also, the EC50 with HBV DNA turned out to be 0.13 µM.
`COC(=O)C1=C(CN2CC(F)(F)C[C@H]2C(=O)O)NC(c2ncc(Cl)s2)=N[C@@]1(C)c1ccc(F)cc1` [Example 33, (S)-6-((S)-2-carboxy-4,4-difluoro-pyrrolidin-1-ylmethyl)-2-(5-chloro-thiazol-2-yl)-4-(4-fluoro-phenyl)-4-methyl-1,4-dihydro-pyrimidine-5-carboxylic acid methyl ester] came in with a CC50 at 5 days in the data set “in vitro” of 80 µM. Further, the EC50 with HBV DNA was determined as 2.07 µM.
The matching figures for `COC(=O)C1=C(CN2C[C@H](F)C[C@H]2C(=O)O)NC(c2nccs2)=N[C@@]1(C)c1ccc(F)cc1` [Example 34, (S)-6-((2S,4R)-2-Carboxy-4-fluoro-pyrrolidin-1-ylmethyl)-4-(4-fluoro-phenyl)-4-methyl-2-thiazol-2-yl-1,4-dihydro-pyrimidine-5-carboxylic acid methyl ester]: at least 100 µM and 2.84 µM.
In the data set “in vitro”, `COC(=O)C1=C(CN2CC(F)(F)C[C@H]2C(=O)O)NC(c2ccon2)=NC1(C)c1ccc(F)cc1` (stereo partly drawn) [Example 35, 6-((S)-2-carboxy-4,4-difluoro-pyrrolidin-1-ylmethyl)-4-(4-fluoro-phenyl)-2-isoxazol-3-yl-4-methyl-1,4-dihydro-pyrimidine-5-carboxylic acid methyl ester] registered a CC50 at 5 days of at least 100 µM. The EC50 with HBV DNA stood at 15 µM.
Compound `COC(=O)C1=C(CN2CC(F)(F)C[C@@]2(C)C(=O)O)NC(c2nccs2)=N[C@]1(C)c1ccc(F)cc1` [Example 36, (R)-6-((S)-2-carboxy-4,4-difluoro-2-methyl-pyrrolidin-1-ylmethyl)-4-(4-fluoro-phenyl)-4-methyl-2-thiazol-2-yl-1,4-dihydro-pyrimidine-5-carboxylic acid methyl ester] registered a CC50 at 5 days in “in vitro” of at least 100 µM. Besides, in the data set with HBV DNA, the EC50 was determined as 7.49 µM.
`COC(=O)C1=C(CN2CC(F)(F)C[C@H]2C(=O)O)NC(c2ncc(C)s2)=N[C@@]1(C)c1ccc(F)cc1` [Example 37, (S)-6-((S)-2-carboxy-4,4-difluoro-pyrrolidin-1-ylmethyl)-4-(4-fluoro-phenyl)-4-methyl-2-(5-methyl-thiazol-2-yl)-1,4-dihydro-pyrimidine-5-carboxylic acid methyl ester] showed a CC50 at 5 days in “in vitro” of 85 µM. Besides, the EC50 with HBV DNA came out at 0.47 µM.
For `COC(=O)C1=C(CN2C[C@@H](F)C[C@H]2C(=O)O)NC(c2nccs2)=N[C@@]1(C)c1ccc(F)cc1` [Example 39, (S)-6-((2S,4S)-2-carboxy-4-fluoro-pyrrolidin-1-ylmethyl)-4-(4-fluoro-phenyl)-4-methyl-2-thiazol-2-yl-1,4-dihydro-pyrimidine-5-carboxylic acid methyl ester] the same measures were at least 100 µM and 10.5 µM.
In turn, `COC(=O)C1=C(CN2CC(F)(F)C[C@H]2C(=O)O)NC(c2cc(C)on2)=NC1(C)c1ccc(F)cc1` (stereo partly drawn) [Example 40, 6-((S)-2-carboxy-4,4-difluoro-pyrrolidin-1-ylmethyl)-4-(4-fluoro-phenyl)-4-methyl-2-(5-methyl-isoxazol-3-yl)-1,4-dihydro-pyrimidine-5-carboxylic acid methyl ester] showed a CC50 at 5 days in the data set “in vitro” of at least 100 µM. The EC50 in the data set with HBV DNA is 5.39 µM.
In the case of `COC(=O)C1=C(CN2CC(F)(F)C[C@H]2C(=O)O)NC(c2sccc2F)=N[C@@]1(C)c1ccc(F)cc1` [Example 41, (S)-6-((S)-2-carboxy-4,4-difluoro-pyrrolidin-1-ylmethyl)-4-(4-fluoro-phenyl)-2-(3-fluoro-thiophen-2-yl)-4-methyl-1,4-dihydro-pyrimidine-5-carboxylic acid methyl ester], the CC50 at 5 days in the data set “in vitro” is at least 100 µM. Also, in the data set on HBV DNA, the EC50 stood at 0.285 µM.
The matching figures for `COC(=O)C1=C(CN2CC(F)(F)C[C@H]2C(=O)O)NC(c2sccc2F)=N[C@]1(C)c1ccc(F)cc1` [Example 42, (R)-6-((S)-2-carboxy-4,4-difluoro-pyrrolidin-1-ylmethyl)-4-(4-fluoro-phenyl)-2-(3-fluoro-thiophen-2-yl)-4-methyl-1,4-dihydro-pyrimidine-5-carboxylic acid methyl ester]: at least 100 µM and 6.81 µM.
